Assay results published in US20190352691A1, “PATHOGEN DETECTION” (priority 2013, published 2019).

Key:
A. baumannii ATCC 17691 = details: cited from earlier work
Mtb = assay: anti-tuberculosis activity (whole cell); type: cell-based, Mycobacterium tuberculosis

SMILES	activity against Acinetobacter baumannii (A. baumannii ATCC 17691)	activity against tuberculosis (Mtb)
N[C@@H](C(=O)N[C@@H]1C(=O)N2C(C(=O)O)=C(Cl)CC[C@H]12)c1ccccc1 [Lorabid]	not active	
C[C@@H]1CC[C@H]2[C@@H](C)C(=O)O[C@@H]3O[C@@]4(C)CC[C@@H]1[C@]32OO4 [artemisinin]		not active
